Source: ChEMBL document CHEMBL3621100, “Discovery of Novel Class I Histone Deacetylase Inhibitors with Promising in Vitro and in Vivo Antitumor Activities” (J Med Chem, 2015)

Tests used:
Histone deacetylase 1 = Histone deacetylase 1 (Homo sapiens, UniProt Q13547); assay: Inhibition of recombinant human HDAC1 after 60 mins by fluorescence assay
Histone deacetylase 5 = Histone deacetylase 5 (Homo sapiens, UniProt Q9UQL6); assay: Inhibition of recombinant human HDAC5 after 60 mins by fluorescence assay
Sequence of Histone deacetylase 5 (Q9UQL6 whole entry): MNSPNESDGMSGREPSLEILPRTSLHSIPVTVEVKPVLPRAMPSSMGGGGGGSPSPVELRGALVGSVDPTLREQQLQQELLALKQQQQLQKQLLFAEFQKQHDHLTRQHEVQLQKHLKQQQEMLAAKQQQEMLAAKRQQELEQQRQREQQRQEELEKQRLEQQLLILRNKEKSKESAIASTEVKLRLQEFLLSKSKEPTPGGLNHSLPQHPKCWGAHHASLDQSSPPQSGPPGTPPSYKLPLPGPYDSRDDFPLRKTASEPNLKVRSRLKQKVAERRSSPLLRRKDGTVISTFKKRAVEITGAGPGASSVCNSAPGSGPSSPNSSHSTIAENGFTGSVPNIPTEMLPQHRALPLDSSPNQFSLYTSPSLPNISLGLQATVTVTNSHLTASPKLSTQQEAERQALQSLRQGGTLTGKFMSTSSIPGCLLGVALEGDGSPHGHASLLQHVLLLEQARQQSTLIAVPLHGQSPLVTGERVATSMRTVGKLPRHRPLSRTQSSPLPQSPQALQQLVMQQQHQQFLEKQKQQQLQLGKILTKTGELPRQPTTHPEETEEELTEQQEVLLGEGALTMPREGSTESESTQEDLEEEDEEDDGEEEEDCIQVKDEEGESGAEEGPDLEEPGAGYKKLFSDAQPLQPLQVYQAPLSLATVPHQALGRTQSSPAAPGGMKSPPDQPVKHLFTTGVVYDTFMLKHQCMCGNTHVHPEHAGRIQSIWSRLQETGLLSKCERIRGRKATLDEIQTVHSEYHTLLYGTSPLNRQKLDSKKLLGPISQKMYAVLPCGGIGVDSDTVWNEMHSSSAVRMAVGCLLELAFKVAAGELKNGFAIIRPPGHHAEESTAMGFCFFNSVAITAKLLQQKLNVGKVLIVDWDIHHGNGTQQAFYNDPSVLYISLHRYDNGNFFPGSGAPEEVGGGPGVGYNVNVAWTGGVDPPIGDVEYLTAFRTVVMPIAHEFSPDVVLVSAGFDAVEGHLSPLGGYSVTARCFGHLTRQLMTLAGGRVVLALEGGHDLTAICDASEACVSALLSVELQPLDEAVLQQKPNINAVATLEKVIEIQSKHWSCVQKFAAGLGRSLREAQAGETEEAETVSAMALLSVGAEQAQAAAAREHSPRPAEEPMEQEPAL

[1] = molecular target: T1, Polyamine deacetylase HDAC10 (Homo sapiens, UniProt Q969S8); assay: Inhibition of recombinant human HDAC10 after 60 mins by fluorescence assay
T1 sequence (Q969S8 whole entry): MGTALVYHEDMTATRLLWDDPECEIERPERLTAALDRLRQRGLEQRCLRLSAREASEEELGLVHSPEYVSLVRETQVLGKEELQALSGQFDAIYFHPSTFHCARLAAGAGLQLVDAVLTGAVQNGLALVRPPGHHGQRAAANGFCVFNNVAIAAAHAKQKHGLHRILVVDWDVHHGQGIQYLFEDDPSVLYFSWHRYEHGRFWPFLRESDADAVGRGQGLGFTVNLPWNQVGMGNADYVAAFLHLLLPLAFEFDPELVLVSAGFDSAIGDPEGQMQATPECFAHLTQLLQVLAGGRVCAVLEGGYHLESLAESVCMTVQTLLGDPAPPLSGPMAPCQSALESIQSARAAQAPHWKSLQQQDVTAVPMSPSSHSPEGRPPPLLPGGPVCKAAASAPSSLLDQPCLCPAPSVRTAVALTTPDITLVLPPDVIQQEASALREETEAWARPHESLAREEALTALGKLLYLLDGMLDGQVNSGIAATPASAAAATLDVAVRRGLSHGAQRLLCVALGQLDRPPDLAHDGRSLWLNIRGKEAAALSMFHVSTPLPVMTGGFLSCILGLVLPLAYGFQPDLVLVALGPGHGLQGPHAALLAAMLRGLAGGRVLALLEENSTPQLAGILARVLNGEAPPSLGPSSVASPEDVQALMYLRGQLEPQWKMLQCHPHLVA

Histone deacetylase 3 = Histone deacetylase 3 (Homo sapiens, UniProt O15379); assay: Inhibition of recombinant human HDAC3 after 60 mins by fluorescence assay
Sequence of Histone deacetylase 3 (O15379 whole entry): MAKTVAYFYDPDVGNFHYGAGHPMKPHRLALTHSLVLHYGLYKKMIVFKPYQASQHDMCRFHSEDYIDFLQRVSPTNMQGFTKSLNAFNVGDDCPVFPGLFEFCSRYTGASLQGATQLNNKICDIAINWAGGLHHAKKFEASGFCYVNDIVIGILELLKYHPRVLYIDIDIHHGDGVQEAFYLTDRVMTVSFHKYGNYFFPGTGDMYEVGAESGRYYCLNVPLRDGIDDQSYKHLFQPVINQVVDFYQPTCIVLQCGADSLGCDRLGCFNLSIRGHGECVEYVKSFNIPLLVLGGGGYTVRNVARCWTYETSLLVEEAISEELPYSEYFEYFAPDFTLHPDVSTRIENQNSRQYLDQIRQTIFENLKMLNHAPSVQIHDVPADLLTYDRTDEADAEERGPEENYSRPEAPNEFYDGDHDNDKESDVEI

Histone deacetylase 7 = molecular target: T2, Histone deacetylase 7 (Homo sapiens, UniProt Q8WUI4); assay: Inhibition of recombinant human HDAC7 after 60 mins by fluorescence assay
T2 sequence (Q8WUI4 whole entry): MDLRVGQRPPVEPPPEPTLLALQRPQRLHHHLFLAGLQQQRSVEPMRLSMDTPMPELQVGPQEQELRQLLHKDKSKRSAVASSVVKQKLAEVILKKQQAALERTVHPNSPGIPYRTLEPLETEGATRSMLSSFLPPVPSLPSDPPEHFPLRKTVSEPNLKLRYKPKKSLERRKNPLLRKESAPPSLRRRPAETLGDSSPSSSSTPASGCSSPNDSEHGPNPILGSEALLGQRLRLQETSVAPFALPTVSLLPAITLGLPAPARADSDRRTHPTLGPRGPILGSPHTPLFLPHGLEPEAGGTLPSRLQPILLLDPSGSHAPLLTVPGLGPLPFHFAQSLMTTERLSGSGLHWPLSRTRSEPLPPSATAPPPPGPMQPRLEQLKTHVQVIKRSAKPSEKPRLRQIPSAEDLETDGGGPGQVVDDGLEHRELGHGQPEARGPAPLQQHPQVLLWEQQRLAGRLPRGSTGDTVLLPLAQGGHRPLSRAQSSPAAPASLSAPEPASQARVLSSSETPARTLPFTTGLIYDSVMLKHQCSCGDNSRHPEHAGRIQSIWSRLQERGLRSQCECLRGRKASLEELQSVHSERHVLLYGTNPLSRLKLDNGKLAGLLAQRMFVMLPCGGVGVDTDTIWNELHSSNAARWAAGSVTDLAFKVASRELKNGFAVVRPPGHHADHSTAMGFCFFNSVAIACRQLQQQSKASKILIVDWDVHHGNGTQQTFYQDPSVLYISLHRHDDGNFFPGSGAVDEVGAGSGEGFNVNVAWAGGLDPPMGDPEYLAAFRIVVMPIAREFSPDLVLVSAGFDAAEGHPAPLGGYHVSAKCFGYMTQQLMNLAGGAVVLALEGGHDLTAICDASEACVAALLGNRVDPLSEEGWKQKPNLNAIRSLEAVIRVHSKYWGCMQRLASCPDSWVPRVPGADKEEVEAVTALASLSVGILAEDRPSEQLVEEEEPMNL

Histone deacetylase 4 = Histone deacetylase 4 (Homo sapiens, UniProt P56524); assay: Inhibition of recombinant human HDAC4 after 60 mins by fluorescence assay
Sequence of Histone deacetylase 4 (P56524 whole entry): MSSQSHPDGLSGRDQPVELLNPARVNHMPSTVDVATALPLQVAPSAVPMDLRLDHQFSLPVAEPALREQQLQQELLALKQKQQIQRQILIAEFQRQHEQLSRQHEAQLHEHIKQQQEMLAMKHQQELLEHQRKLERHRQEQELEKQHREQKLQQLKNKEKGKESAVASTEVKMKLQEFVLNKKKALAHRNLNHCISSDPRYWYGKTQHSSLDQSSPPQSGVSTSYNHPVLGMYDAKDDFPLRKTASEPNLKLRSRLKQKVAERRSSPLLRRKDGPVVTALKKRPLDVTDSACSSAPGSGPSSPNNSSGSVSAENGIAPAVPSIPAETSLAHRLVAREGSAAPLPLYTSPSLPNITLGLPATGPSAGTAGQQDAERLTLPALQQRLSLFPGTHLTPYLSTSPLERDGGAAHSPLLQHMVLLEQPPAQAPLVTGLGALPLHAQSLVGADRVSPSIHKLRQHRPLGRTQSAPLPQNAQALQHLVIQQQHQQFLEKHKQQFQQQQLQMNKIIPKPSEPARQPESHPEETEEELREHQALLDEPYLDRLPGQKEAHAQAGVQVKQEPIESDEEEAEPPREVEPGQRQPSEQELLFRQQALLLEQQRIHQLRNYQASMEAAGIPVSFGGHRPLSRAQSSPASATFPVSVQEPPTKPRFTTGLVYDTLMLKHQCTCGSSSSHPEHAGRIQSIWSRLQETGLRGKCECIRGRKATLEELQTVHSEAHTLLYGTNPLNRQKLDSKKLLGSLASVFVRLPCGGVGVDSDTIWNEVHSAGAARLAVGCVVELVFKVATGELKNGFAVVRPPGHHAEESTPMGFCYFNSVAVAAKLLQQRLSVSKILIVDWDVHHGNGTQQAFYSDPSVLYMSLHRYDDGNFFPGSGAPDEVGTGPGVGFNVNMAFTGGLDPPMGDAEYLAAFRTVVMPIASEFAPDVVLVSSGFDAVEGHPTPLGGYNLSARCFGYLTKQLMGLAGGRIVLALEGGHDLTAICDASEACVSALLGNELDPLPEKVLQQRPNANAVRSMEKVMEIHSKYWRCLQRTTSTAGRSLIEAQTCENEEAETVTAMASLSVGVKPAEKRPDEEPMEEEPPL

Histone deacetylase 11 = molecular target: T3, Histone deacetylase 11 (Homo sapiens, UniProt Q96DB2); assay: Inhibition of recombinant human HDAC11 after 60 mins by fluorescence assay
T3 sequence (Q96DB2 whole entry): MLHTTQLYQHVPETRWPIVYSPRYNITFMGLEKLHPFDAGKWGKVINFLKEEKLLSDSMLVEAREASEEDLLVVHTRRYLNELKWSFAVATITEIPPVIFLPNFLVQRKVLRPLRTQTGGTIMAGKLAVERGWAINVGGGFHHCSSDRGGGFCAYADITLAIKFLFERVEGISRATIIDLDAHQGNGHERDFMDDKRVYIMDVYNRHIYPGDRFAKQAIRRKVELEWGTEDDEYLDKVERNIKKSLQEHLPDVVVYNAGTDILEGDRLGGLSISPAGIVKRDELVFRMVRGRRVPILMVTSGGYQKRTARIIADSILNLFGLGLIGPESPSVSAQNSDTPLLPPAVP

Histone deacetylase 9 = Histone deacetylase 9 (Homo sapiens, UniProt Q9UKV0); assay: Inhibition of recombinant human HDAC9 after 60 mins by fluorescence assay
Sequence of Histone deacetylase 9 (Q9UKV0 whole entry): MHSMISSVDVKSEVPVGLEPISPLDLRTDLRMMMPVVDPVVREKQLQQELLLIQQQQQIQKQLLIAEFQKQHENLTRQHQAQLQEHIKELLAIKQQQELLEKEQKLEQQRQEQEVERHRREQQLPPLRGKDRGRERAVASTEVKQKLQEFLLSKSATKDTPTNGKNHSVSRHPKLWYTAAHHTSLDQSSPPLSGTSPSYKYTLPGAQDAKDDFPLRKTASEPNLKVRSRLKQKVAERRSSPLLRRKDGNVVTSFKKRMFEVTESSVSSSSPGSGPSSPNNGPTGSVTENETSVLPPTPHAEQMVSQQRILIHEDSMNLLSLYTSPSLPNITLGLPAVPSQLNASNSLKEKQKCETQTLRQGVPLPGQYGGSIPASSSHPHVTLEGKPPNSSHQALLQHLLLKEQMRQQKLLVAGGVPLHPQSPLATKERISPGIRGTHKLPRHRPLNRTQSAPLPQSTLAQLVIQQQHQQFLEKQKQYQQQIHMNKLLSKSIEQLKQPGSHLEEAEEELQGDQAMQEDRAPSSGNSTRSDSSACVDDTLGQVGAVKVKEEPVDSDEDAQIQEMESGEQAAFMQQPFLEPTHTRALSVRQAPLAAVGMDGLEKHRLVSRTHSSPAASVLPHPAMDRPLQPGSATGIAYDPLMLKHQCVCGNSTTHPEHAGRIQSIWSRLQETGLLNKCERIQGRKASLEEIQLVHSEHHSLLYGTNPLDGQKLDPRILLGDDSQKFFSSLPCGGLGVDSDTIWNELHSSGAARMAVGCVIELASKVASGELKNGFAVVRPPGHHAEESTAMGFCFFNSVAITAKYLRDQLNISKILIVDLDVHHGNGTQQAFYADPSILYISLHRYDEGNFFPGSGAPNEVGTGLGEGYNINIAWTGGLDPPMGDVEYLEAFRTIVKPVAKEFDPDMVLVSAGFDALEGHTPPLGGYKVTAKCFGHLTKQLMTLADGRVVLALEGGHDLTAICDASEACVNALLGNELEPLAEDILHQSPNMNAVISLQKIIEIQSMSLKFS

Histone deacetylase 8 = molecular target: T4, Histone deacetylase 8 (Homo sapiens, UniProt Q9BY41); assay: Inhibition of recombinant human HDAC8 after 60 mins by fluorescence assay
T4 sequence (Q9BY41 whole entry): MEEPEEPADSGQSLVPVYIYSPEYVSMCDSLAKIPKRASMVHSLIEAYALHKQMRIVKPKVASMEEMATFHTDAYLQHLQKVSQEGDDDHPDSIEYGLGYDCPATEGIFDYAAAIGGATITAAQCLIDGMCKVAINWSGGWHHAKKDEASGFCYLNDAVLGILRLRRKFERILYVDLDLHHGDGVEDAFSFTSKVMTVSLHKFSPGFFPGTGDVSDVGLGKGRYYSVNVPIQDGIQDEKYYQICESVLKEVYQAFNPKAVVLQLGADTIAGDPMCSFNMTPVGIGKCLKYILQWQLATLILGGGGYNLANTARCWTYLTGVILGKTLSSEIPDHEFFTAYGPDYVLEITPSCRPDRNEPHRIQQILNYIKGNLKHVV

in vitro = settings: human, DU145 cells and HLF cells
Description: Selectivity ratio of GI50 for human DU145 cells to GI50 for human HLF cells

[2] = Antiproliferative activity against human MOLT4 cells after 72 hrs by CCK8 assay; assay type: functional, MOLT-4; settings: Homo sapiens, MOLT-4, 72 h
[3] = Antiproliferative activity against human HLF cells after 72 hrs by CCK8 assay; assay type: cell-based
U-937 = assay: Antiproliferative activity against human U937 cells after 72 hrs by CCK8 assay; assay type: functional; settings: Homo sapiens, U-937, 72 h
DU-145 = assay: Antiproliferative activity against human DU145 cells after 72 hrs by CCK8 assay; assay type: functional; settings: Homo sapiens, DU-145, 72 h
[4] = Antiproliferative activity against human WI38 cells after 72 hrs by CCK8 assay; assay type: cell-based, WI-38

Sequence of Histone deacetylase 1 (Q13547 whole entry): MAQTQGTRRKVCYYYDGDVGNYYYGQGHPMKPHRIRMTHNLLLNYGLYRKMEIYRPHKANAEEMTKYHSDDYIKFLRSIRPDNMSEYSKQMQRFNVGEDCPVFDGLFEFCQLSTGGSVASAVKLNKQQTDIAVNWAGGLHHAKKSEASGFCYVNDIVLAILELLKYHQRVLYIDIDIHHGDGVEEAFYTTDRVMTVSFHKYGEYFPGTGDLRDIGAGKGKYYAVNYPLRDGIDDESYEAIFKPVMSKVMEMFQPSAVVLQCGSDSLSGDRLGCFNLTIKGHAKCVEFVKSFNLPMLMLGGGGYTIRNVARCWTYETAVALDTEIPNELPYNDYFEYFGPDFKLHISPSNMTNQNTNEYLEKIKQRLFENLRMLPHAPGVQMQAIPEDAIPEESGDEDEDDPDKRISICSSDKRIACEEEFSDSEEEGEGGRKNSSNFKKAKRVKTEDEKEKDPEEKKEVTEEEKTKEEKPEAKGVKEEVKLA

Q: For `C/C=C1\NC(=O)c2csc(n2)[C@@H](C(C)C)NC(=O)C[C@@H](/C=C/CCS)OC(=O)[C@H](C(C)C)NC1=O`, which IC50 (Histone deacetylase 1) is on record?
A: The IC50 was 2.18 nM.

Q: And the IC50 (Histone deacetylase 5)?
A: The IC50 was over 10000 nM.

Q: And the IC50 [1]?
A: The IC50 was 138 nM.

Q: And the IC50 (Histone deacetylase 3)?
A: The IC50 was 9.77 nM.

Q: And the IC50 (Histone deacetylase 7)?
A: The IC50 was over 10000 nM.

Q: What about the IC50 (Histone deacetylase 4) of the same compound?
A: Its IC50 is over 10000 nM.

Q: And the IC50 (Histone deacetylase 11)?
A: Its IC50 is over 10000 nM.

Q: What about the IC50 (Histone deacetylase 9) of the same compound?
A: Its IC50 is over 10000 nM.

Q: What about the IC50 (Histone deacetylase 8) of the same compound?
A: The IC50 was 2550 nM.

Q: Which IC50 (Histone deacetylase 1) does the source give for `C/C=C1\NC(=O)c2csc(n2)CNC(=O)C[C@@H](/C=C/CCS)OC(=O)[C@H](C(C)C)NC1=O` here?
A: Its IC50 is 2.78 nM.

Q: And the IC50 (Histone deacetylase 5)?
A: The IC50 was over 10000 nM.

Q: And the IC50 [1]?
A: Its IC50 is 37.4 nM.

Q: What about the IC50 (Histone deacetylase 3) of the same compound?
A: Its IC50 is 7.67 nM.

Q: What about the IC50 (Histone deacetylase 7) of the same compound?
A: The IC50 was over 10000 nM.

Q: What about the IC50 (Histone deacetylase 4) of the same compound?
A: Its IC50 is over 10000 nM.

Q: And the IC50 (Histone deacetylase 11)?
A: The IC50 was over 10000 nM.

Q: And the IC50 (Histone deacetylase 9)?
A: The IC50 was over 10000 nM.

Q: What about the IC50 (Histone deacetylase 8) of the same compound?
A: The IC50 was 3550 nM.

Q: With `C/C=C1\NC(=O)c2csc(n2)CNC(=O)C[C@@H](/C=C/CCSC(=O)CCCCCCC)OC(=O)[C@H](C(C)C)NC1=O` as the compound, how does the IC50 (Histone deacetylase 1) read?
A: Its IC50 is 158 nM.

Q: And the selectivity ratio (in vitro)?
A: The selectivity ratio was 0.022.

Q: And the IC50 (Histone deacetylase 5)?
A: Its IC50 is over 10000 nM.

Q: What about the IC50 [1] of the same compound?
A: Its IC50 is 1930 nM.

Q: And the IC50 (Histone deacetylase 3)?
A: Its IC50 is 1680 nM.

Q: What about the IC50 (Histone deacetylase 7) of the same compound?
A: Its IC50 is over 10000 nM.

Q: And the GI50 [2]?
A: Its GI50 is 5.87 nM.

Q: What about the IC50 (Histone deacetylase 4) of the same compound?
A: The IC50 was over 10000 nM.

Q: What about the GI50 at 72 h [3] of the same compound?
A: The GI50 at 72 h was 312 nM.

Q: And the GI50 (U-937)?
A: The GI50 was 6.59 nM.

Q: And the IC50 (Histone deacetylase 11)?
A: Its IC50 is over 10000 nM.

Q: And the GI50 (DU-145)?
A: The GI50 was 6.99 nM.

Q: And the GI50 at 72 h [4]?
A: Its GI50 at 72 h is 157 nM.

Q: What about the IC50 (Histone deacetylase 9) of the same compound?
A: The IC50 was over 10000 nM.

Q: And the IC50 (Histone deacetylase 8)?
A: The IC50 was over 10000 nM.

Q: With `C/C=C1\NC(=O)c2csc(n2)CNC(=O)C[C@@H](/C=C/CCSC(C)=O)OC(=O)[C@H](C(C)C)NC1=O` as the compound, how does the IC50 (Histone deacetylase 1) read?
A: The IC50 was 21.6 nM.

Q: What about the selectivity ratio (in vitro) of the same compound?
A: The selectivity ratio was 0.034.

Q: And the IC50 (Histone deacetylase 5)?
A: Its IC50 is over 10000 nM.

Q: And the IC50 [1]?
A: Its IC50 is 751 nM.

Q: What about the IC50 (Histone deacetylase 3) of the same compound?
A: Its IC50 is 73 nM.

Q: And the IC50 (Histone deacetylase 7)?
A: The IC50 was over 10000 nM.

Q: What about the GI50 [2] of the same compound?
A: The GI50 was 7.22 nM.

Q: What about the IC50 (Histone deacetylase 4) of the same compound?
A: The IC50 was over 10000 nM.

Q: And the GI50 at 72 h [3]?
A: The GI50 at 72 h was 321 nM.

Q: What about the GI50 (U-937) of the same compound?
A: The GI50 was 10.5 nM.

Q: What about the IC50 (Histone deacetylase 11) of the same compound?
A: Its IC50 is over 10000 nM.

Q: And the GI50 (DU-145)?
A: The GI50 was 11 nM.

Q: And the GI50 at 72 h [4]?
A: The GI50 at 72 h was 258 nM.

Q: And the IC50 (Histone deacetylase 9)?
A: Its IC50 is over 10000 nM.

Q: What about the IC50 (Histone deacetylase 8) of the same compound?
A: The IC50 was over 10000 nM.

Q: Which IC50 (Histone deacetylase 1) does the source give for `C/C=C1\NC(=O)c2csc(n2)[C@@H](C(C)C)NC(=O)C[C@@H](/C=C/CCSC(=O)CCCCCCC)OC(=O)[C@H](C(C)C)NC1=O` here?
A: The IC50 was 165 nM.

Q: And the selectivity ratio (in vitro)?
A: The selectivity ratio was 0.029.

Q: And the IC50 (Histone deacetylase 5)?
A: Its IC50 is over 10000 nM.

Q: And the IC50 [1]?
A: Its IC50 is 395 nM.

Q: And the IC50 (Histone deacetylase 3)?
A: Its IC50 is 3150 nM.

Q: And the IC50 (Histone deacetylase 7)?
A: Its IC50 is over 10000 nM.

Q: What about the GI50 [2] of the same compound?
A: Its GI50 is 22 nM.

Q: What about the IC50 (Histone deacetylase 4) of the same compound?
A: The IC50 was over 10000 nM.

Q: What about the GI50 at 72 h [3] of the same compound?
A: The GI50 at 72 h was 710 nM.

Q: And the GI50 (U-937)?
A: The GI50 was 31.7 nM.

Q: And the IC50 (Histone deacetylase 11)?
A: Its IC50 is over 10000 nM.

Q: And the GI50 (DU-145)?
A: Its GI50 is 20.5 nM.

Q: And the GI50 at 72 h [4]?
A: Its GI50 at 72 h is 561 nM.

Q: And the IC50 (Histone deacetylase 9)?
A: The IC50 was over 10000 nM.

Q: What about the IC50 (Histone deacetylase 8) of the same compound?
A: Its IC50 is over 10000 nM.
